Measurements: patent publication US7202280B2, “Methods for the treatment and prevention of pancreatitis and for induction of liver regeneration” (priority 2002, dated 2007)
Marks after values point to notes of the source that are not given here.

Key:
SSAT = assay: Hepatic, pancreatic and renal SSAT activity in syngenic and metallothionein-SSAT mice after analogue; format: in vivo, mouse; conditions: 24 h before sacrifice
Protocol: α-methylspermidine, Bis-α-methylspermine and α-methylspermine were administered in saline. […] The data are expressed as means ±S.D. For statistical analysis, the two-tailed Student's t test was used.

SSAT transgenic rats = assay: Stability of the analogues in the liver of SSAT transgenic rats without or with MDL72527 (hepatic polyamine pools); format: in vivo, rat
Protocol: FIGS. 8A-8D. Hepatic polyamine pools in SSAT transgenic rats treated with methylated polyamine analogues without or with MDL72527. The rats were injected twice with MDL72527 (50 mg/kg i.p.) at 16-h interval. The polyamine analogues (25 mg/kg i.p.) were injected 2 and 8 h later. The animals were sacrificed 24 h after the last MDL72527 injection. There were three to four animals in each group. Put, putrescine; […] Spd, spermidine; Me-Spd, α-methylspermidine; […] The production of transgenic Wistar rats (UKUR30) and mice (UKU181) harboring metallothionein-SSAT fusion gene (Suppola, […]., Porter, C. W., and Jänne, J. (1999) Biochem. […] (2000) Proc. Natl. Acad. Sci. U.S.A. 97, 8290-8295; Lukkarinen, […]., and Alhonen, L. (1997) Stroke 28, 639-645). Partial hepatectomy was carried out according to the original method of Higgins and Anderson (Higgins, G. H., and Anderson, R. M. (1931) Arch. Pathol. 12, 186-202). Treatments before partial hepatectomy and the determination of DNA synthesis were carried out as in ([…]., Suppola, […]., and […]. Biol. Chem. 277, 39867-39872). Transgenic 10 weeks old male rats were injected twice with MDL72527 (50 mg/kg i.p.) at 16-h interval to inactivate PAO according to (Bolkenius, F. N., Bey, P., and Seiler, N. (1985) Biochim. Biophys. […] An aliquot of the homogenates was used for the polyamine assays. The homogenates were centrifuged (at 13 000×g, for 30 min, at 4° C.) and the supernatants were used for the enzyme activity assays. The Institutional Animal Care and Use Committee of the University of Kuopio and by the Provincial Government approved animal experiments. […] Merck (Darmstadt, Germany).

[1] = test system: syngenic and transgenic rats; assay: Hepatic SSAT activity and polyamine pools after partial hepatectomy; format: in vivo, rat; conditions: transgenic rats; 24 h regenerating liver; 25 mg/kg 20 and 4 h before operation
Source text: FIGS. 4a–4d. Hepatic polyamine pools in syngenic and transgenic rats after partial hepatectomy and methylspermidine. […] Three to five animals in each group. Me-spd, methylspermidine.
The production of transgenic Wistar rats (UKUR30) and mice (UKU181) harboring metallothionein-SSAT fusion gene (Suppola, S., Pietilä, M., Parkkinen, J. J., Korhonen, V. P., Alhonen, L., Halmekytö, M., Porter, C. W., and Jänne, J. (1999) Biochem. J. 338, 311–316) has been described earlier (Alhonen, L., Parkkinen, J. J., Keinänen, T., Sinervirta, R., Herzig, K. H., and Jänne, J. (2000) Proc. Natl. Acad. Sci. U.S.A. 97, 8290–8295; Lukkarinen, J., Gröhn, O., Sinervirta, R., Järvinen, A., Kauppinen, R. A., Jänne, J., and Alhonen, L. (1997) Stroke 28, 639–645). Partial hepatectomy was carried out according to the original method of Higgins and Anderson (Higgins, G. H., and Anderson, R. M. (1931) Arch. Pathol. 12, 186–202). Treatments before partial hepatectomy and the determination of DNA synthesis were carried out as in (Räsänen, T. L., Alhonen, L., Sinervirta, R., Keinänen, T., Herzig, K. H., Suppola, S., Khomutov, A. R., Vepsäläinen, J., and Jänne, J. (2002) J. Biol. Chem. 277, 39867–39872). […] The animals were sacrificed 24 h after the second MDL72527 injection and liver pieces were frozen in liquid nitrogen, homogenized in buffer (25 mM Tris-HCl pH 7.4, 0.1 mM EDTA, 1 mM DTT). An aliquot of the homogenates was used for the polyamine assays. The homogenates were centrifuged (at 13 000×g, for 30 min, at 4° C.) and the supernatants were used for the enzyme activity assays. The Institutional Animal Care and Use Committee of the University of Kuopio and by the Provincial Government approved animal experiments.
FIG. 4 depicts polyamine concentrations in syngenic and transgenic rats at 24 h after partial hepatectomy. […] This in all likelihood reflected the enhanced SSAT activity. […] In transgenic animals, the low spermidine pool was further decreased in response to the operation (FIG. 4c).
Liver regeneration could be restored by a prior administration of α-methylspermidine (Räsänen, T. L., Alhonen, L., Sinervirta, R., Keinänen, T., Herzig, K. H., Suppola, S., Khomutov, A. R., Vepsäläinen, J., and Jänne, J. (2002) J. Biol. Chem. 277, 39867–39872). FIG. 10. depicts thymidine incorporation in livers of transgenic rats before and 24 h after partial hepatectomy. […] Table 3 lists the liver pools of polyamines and their analogues before and after partial hepatectomy. […] The analogues were readily accumulated in the livers.

rats = assay: Toxicity of spermine derivatives in rats (deaths); format: in vivo, rat; conditions: 50 mg/kg twice/24 h
Source text: It is likely to be the case with the methylated analogues as well.

[2] = Tg (transgenic) mice, 12.5 mg/kg
[3] = Tg (transgenic) mice, 37.5 mg/kg

CC(N)CCNCCCCNCCC(C)N (stereo not drawn) [bis-α-methylspermine, 1,12-dimethylspermine]
SSAT activity, Kidney (SSAT; Sg (syngenic) mice, 12.5 mg/kg): 0.32 ± 0.14 ^++ pmoles/10 min/ tissue wet weight | SSAT activity, Pancreas (SSAT; Sg (syngenic) mice, 12.5 mg/kg): 3.38 pmoles/10 min/ tissue wet weight | SSAT activity, Kidney (SSAT; Sg (syngenic) mice, 25 mg/kg): 0.58 ± 0.43 ^+ pmoles/10 min/ tissue wet weight | SSAT activity, Pancreas (SSAT; Sg (syngenic) mice, 25 mg/kg): 4.23 pmoles/10 min/ tissue wet weight | SSAT activity, Kidney (SSAT; Sg (syngenic) mice, 37.5 mg/kg): 0.33 ± 0.14 ^+ pmoles/10 min/ tissue wet weight | SSAT activity, Pancreas (SSAT; Sg (syngenic) mice, 37.5 mg/kg): 3.18 pmoles/10 min/ tissue wet weight | SSAT activity, Kidney (SSAT; Sg (syngenic) mice, 50 mg/kg): 0.60 ± 0.19 ^+ pmoles/10 min/ tissue wet weight | SSAT activity, Pancreas (SSAT; Sg (syngenic) mice, 50 mg/kg): 8.44 pmoles/10 min/ tissue wet weight | SSAT activity, Kidney (SSAT; [2]): 0.72 ± 0.24 pmoles/10 min/ tissue wet weight | SSAT activity, Liver (SSAT; [2]): 6.56 pmoles/10 min/ tissue wet weight | SSAT activity, Pancreas (SSAT; [2]): 34.11 pmoles/10 min/ tissue wet weight | SSAT activity, Kidney (SSAT; Tg (transgenic) mice, 25 mg/kg): 1.48 ± 0.92 pmoles/10 min/ tissue wet weight | SSAT activity, Liver (SSAT; Tg (transgenic) mice, 25 mg/kg): 9.08 pmoles/10 min/ tissue wet weight | SSAT activity, Pancreas (SSAT; Tg (transgenic) mice, 25 mg/kg): 65.20 pmoles/10 min/ tissue wet weight | SSAT activity, Kidney (SSAT; [3]): 8.04 ± 14.36 pmoles/10 min/ tissue wet weight | SSAT activity, Liver (SSAT; [3]): 55.79 pmoles/10 min/ tissue wet weight | SSAT activity, Pancreas (SSAT; [3]): 124.95 pmoles/10 min/ tissue wet weight | SSAT activity, Kidney (SSAT; Tg (transgenic) mice, 50 mg/kg): 1.24 ± 0.39 pmoles/10 min/ tissue wet weight | SSAT activity, Liver (SSAT; Tg (transgenic) mice, 50 mg/kg): 13.11 pmoles/10 min/ tissue wet weight | SSAT activity, Pancreas (SSAT; Tg (transgenic) mice, 50 mg/kg): 62.05 pmoles/10 min/ tissue wet weight | metabolic stability / conversion in the liver in vivo (SSAT transgenic rats; 25 mg/kg i.p. twice, without MDL72527): converted to α-methylspermidine, but less effectively than α-methylspermine | conversion to α-methylspermidine in the liver (SSAT transgenic rats; with MDL72527 50 mg/kg i.p. twice): totally prevented | Me2-Spm (liver) [1]: 381 ± 124 pmoles/mg tissue wet weight | Me-Spd (liver) [1]: 154 ± 6 pmoles/mg tissue wet weight | Put (liver) [1]: 4400 ± 275^a pmoles/mg tissue wet weight | Spd (liver) [1]: 266 ± 55^a pmoles/mg tissue wet weight | Spm (liver) [1]: 6 ± 8^a pmoles/mg tissue wet weight | deaths (rats): a number of rats died
